Source: patent publication US8791148B2, “Substituted benzimidazolone derivatives, medicaments comprising them and their use” (AbbVie Deutschland GmbH & Co. KG, priority 2006, dated 2014)

Biological target: T1, human vasopressin V1b receptor (Homo sapiens, UniProt P47901)
T1 construct: expressed in transfected cells; host or cells: CHO-K1 (cell line hV1b-3H2_CHO), membrane preparation
T1 sequence (P47901 1-424): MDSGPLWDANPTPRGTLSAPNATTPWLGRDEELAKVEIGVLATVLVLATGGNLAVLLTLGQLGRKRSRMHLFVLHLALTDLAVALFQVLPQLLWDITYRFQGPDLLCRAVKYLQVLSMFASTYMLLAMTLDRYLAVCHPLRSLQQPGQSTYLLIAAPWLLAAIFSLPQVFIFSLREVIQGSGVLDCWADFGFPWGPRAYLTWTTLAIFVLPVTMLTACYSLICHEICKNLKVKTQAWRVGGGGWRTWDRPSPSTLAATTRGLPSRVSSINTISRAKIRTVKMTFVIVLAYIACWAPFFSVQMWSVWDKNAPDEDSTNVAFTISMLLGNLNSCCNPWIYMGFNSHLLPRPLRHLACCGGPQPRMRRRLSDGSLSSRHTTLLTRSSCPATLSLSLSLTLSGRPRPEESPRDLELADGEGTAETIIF
Assay: Vasopressin V1b receptor binding assay
Conditions: membranes from CHO-K1 cells with stably expressed human V1b receptors; displacement of 1.5 nM 3H-AVP; read-out: V1b receptor affinity (affinity constant Ki)
Method: Vasopressin V1b Receptor Binding Assay:
The test substances were dissolved in a concentration of 10^−2 M in DMSO and further diluted to 5×10^−4 M to 5×10^−9 M in DMSO. This series of DMSO predilutions was diluted 1:10 with assay buffer. The substance concentration was again diluted 1:5 in the assay mixture (2% DMSO in the mixture).
The membrane pellet was again homogenized and centrifuged as described and then taken up in 50 mM Tris-HCl, pH 7.4, homogenized and stored in aliquots frozen in liquid nitrogen at −190° C.
The incubation buffer was: 50 mM Tris, 10 mM MgCl2, 0.1% BSA, pH 7.4. […] The nonspecific binding was determined with 1 uM AVP (Bachem #H1780). All determinations were carried out as triplicate determinations. After incubation (60 minutes at room temperature), the free radioligand was removed by vacuum filtration (Skatron cell harvester 7000) through Wathman GF/B glass fiber filter mats, and the filters were transferred into scintillation vials. The liquid scintillation measurement took place in a Tricarb model 2000 or 2200CA instrument (Packard). Conversion of the measured cpm into dpm was carried out with the aid of a standard quench series.
The binding parameters were calculated by nonlinear regression in SAS.
The above assay was used to measure the affinities of the compounds of the invention for the human vasopressin V1b receptor and to determine the affinity constants (Ki).

Row | Compound | Ki [nM]
1 | COc1ccc(S(=O)(=O)n2c(=O)n(C(C(=O)N3CCN(C4CCN(C)CC4)CC3)c3ccccc3)c3ccc(Cl)cc32)c(OC)c1 (centres unmarked) [Example 37, 5-Chloro-3-(2,4-dimethoxybenzenesulfonyl)-1-{2-[4-(1-methylpiperidin-4-yl)piperazin-1-yl]-2-oxo-1-phenylethyl}-1,3-dihydrobenzimidazol-2-one] | 500 to 10000
2 | COc1ccc(S(=O)(=O)n2c(=O)n(C(C(=O)N3CCN(C4CCN(C)CC4)CC3)c3ccccc3)c3ccc(Cl)cc32)cc1 (centres unmarked) [Example 38, 5-Chloro-3-(4-methoxybenzenesulfonyl)-1-{2-[4-(1-methylpiperidin-4-yl)piperazin-1-yl]-2-oxo-1-phenylethyl}-1,3-dihydrobenzimidazol-2-one] | 100 to 500
3 | CN1CCC(N2CCN(C(=O)C(c3ccccc3)n3c(=O)n(S(=O)(=O)c4ccc(C#N)cc4)c4cc(Cl)ccc43)CC2)CC1 (centres unmarked) [Example 39, 4-(6-Chloro-3-{2-[4-(1-methylpiperidin-4-yl)piperazin-1-yl]-2-oxo-1-phenylethyl}-2-oxo-2,3-dihydrobenzimidazole-1-sulfonyl)benzonitrile] | 500 to 10000
4 | O=C(C(c1ccccc1)n1c(=O)n(S(=O)(=O)c2cccc3cccnc23)c2cc(Cl)c(Cl)cc21)N1CCN(c2ccncc2)CC1 (centres unmarked) [Example 40, 5,6-Dichloro-1-[2-oxo-1-phenyl-2-(4-pyridin-4-ylpiperazin-1-yl)ethyl]-3-(quinoline-8-sulfonyl)-1,3-dihydrobenzimidazol-2-one] | 500 to 10000
5 | COc1ccc(S(=O)(=O)n2c(=O)n(C(C(=O)N3CCN(c4ccncc4)CC3)c3ccccc3)c3ccccc32)cc1 (centres unmarked) [Example 41, 1-(4-Methoxybenzenesulfonyl)-3-[2-oxo-1-phenyl-2-(4-pyridin-4-ylpiperazin-1-yl)ethyl]-1,3-dihydrobenzimidazol-2-one] | 500 to 10000
6 | O=C(C(c1ccccc1)n1c(=O)n(S(=O)(=O)c2ccc(OC(F)(F)F)cc2)c2ccc(Cl)cc21)N1CCN(c2ccncc2)CC1 (centres unmarked) [Example 42, 5-Chloro-3-[2-oxo-1-phenyl-2-(4-pyridin-4-ylpiperazin-1-yl)ethyl]-1-(4-trifluoromethoxybenzenesulfonyl)-1,3-dihydrobenzimidazol-2-one] | 500 to 10000
7 | COc1cc(C)ccc1S(=O)(=O)n1c(=O)n(C(C(=O)N2CCN(c3ccncc3)CC2)c2ccccc2)c2cc(Cl)ccc21 (centres unmarked) [Example 43, 5-Chloro-1-(2-methoxy-4-methyl-benzenesulfonyl)-3-[2-oxo-1-phenyl-2-(4-pyridin-4-ylpiperazin-1-yl)ethyl]-1,3-dihydrobenzimidazol-2-one] | 500 to 10000
8 | O=C(C(c1ccccc1)n1c(=O)n(S(=O)(=O)c2cccs2)c2ccc(Cl)cc21)N1CCN(c2ccncc2)CC1 (centres unmarked) [Example 44, 5-Chloro-3-[2-oxo-1-phenyl-2-(4-pyridin-4-ylpiperazin-1-yl)ethyl]-1-(thiophene-2-sulfonyl)-1,3-dihydrobenzimidazol-2-one] | 100 to 500
9 | COc1ccccc1S(=O)(=O)n1c(=O)n(C(C(=O)N2CCN(c3ccncc3)CC2)c2ccccc2)c2cc(Cl)ccc21 (centres unmarked) [Example 45, 5-Chloro-1-(2-methoxybenzenesulfonyl)-3-[2-oxo-1-phenyl-2-(4-pyridin-4-ylpiperazin-1-yl)ethyl]-1,3-dihydrobenzimidazol-2-one] | 100 to 500
10 | COc1ccc(S(=O)(=O)n2c(=O)n(C(C(=O)N3CCN(c4ccncc4)CC3)c3ccccc3)c3cc(C#N)ccc32)cc1 (centres unmarked) [Example 46, 1-(4-Methoxybenzenesulfonyl)-2-oxo-3-[2-oxo-1-phenyl-2-(4-pyridin-4-ylpiperazin-1-yl)ethyl]-2,3-dihydro-1H-benzimidazole-5-carbonitrile] | 100 to 500
11 | O=C(C(c1ccccc1)n1c(=O)n(S(=O)(=O)c2ccccc2)c2ccc(Cl)cc21)N1CCN(c2ccncc2)CC1 (centres unmarked) [Example 47, 1-Benzenesulfonyl-5-chloro-3-[2-oxo-1-phenyl-2-(4-pyridin-4-ylpiperazin-1-yl)ethyl]-1,3-dihydrobenzimidazol-2-one] | 100 to 500
12 | COc1ccc(S(=O)(=O)n2c(=O)n(C(C(=O)N3CCN(c4ccncc4)CC3)c3ccccc3)c3cc(C#N)ccc32)c(OC)c1 (centres unmarked) [Example 48, 1-(2,4-Dimethoxybenzenesulfonyl)-2-oxo-3-[2-oxo-1-phenyl-2-(4-pyridin-4-ylpiperazin-1-yl)-ethyl]-2,3-dihydro-1H-benzimidazole-5-carbonitrile] | 500 to 10000
13 | O=C(C(c1ccccc1)n1c(=O)n(S(=O)(=O)c2ccc(C(F)(F)F)cc2)c2ccc(Cl)cc21)N1CCN(c2ccncc2)CC1 (centres unmarked) [Example 49, 5-Chloro-3-[2-oxo-1-phenyl-2-(4-pyridin-4-ylpiperazin-1-yl)ethyl]-1-(4-trifluoromethylbenzenesulfonyl)-1,3-dihydrobenzimidazol-2-one] | 500 to 10000
14 | N#Cc1ccc2c(c1)n(C(C(=O)N1CCN(c3ccncc3)CC1)c1ccccc1)c(=O)n2S(=O)(=O)c1cccc2cccnc12 (centres unmarked) [Example 50, 2-Oxo-3-[2-oxo-1-phenyl-2-(4-pyridin-4-ylpiperazin-1-yl)ethyl]-1-(quinoline-8-sulfonyl)-2,3-dihydro-1H-benzimidazole-5-carbonitrile] | 500 to 10000
15 | N#Cc1ccc(S(=O)(=O)n2c(=O)n(C(C(=O)N3CCN(c4ccncc4)CC3)c3ccccc3)c3cc(C#N)ccc32)cc1 (centres unmarked) [Example 51, 1-(4-Cyanobenzenesulfonyl)-2-oxo-3-[2-oxo-1-phenyl-2-(4-pyridin-4-ylpiperazin-1-yl)ethyl]-2,3-dihydro-1H-benzimidazole-5-carbonitrile] | 500 to 10000
16 | CCCN1CCN(C2CCN(C(=O)C(c3ccccc3)n3c(=O)n(S(=O)(=O)c4ccc(OC)cc4)c4ccc(C#N)cc43)C2)CC1 (centres unmarked) [Example 52, 1-(4-Methoxybenzenesulfonyl)-2-oxo-3-{2-oxo-1-phenyl-2-[3-(4-propylpiperazin-1-yl)-pyrrolidin-1-yl]-ethyl}-2,3-dihydro-1H-benzimidazole-5-carbonitrile] | < 100
17 | O=C(C(c1ccccc1)n1c(=O)n(S(=O)(=O)c2cccc3cccnc23)c2ccc(Cl)cc21)N1CCN(c2ccncc2)CC1 (centres unmarked) [Example 53, 5-Chloro-3-[2-oxo-1-phenyl-2-(4-pyridin-4-ylpiperazin-1-yl)ethyl]-1-(quinoline-8-sulfonyl)-1,3-dihydrobenzimidazol-2-one] | < 100
18 | COc1ccc(S(=O)(=O)n2c(=O)n(C(C(=O)N3CCN(C4CCN(C)CC4)CC3)c3ccccc3)c3cc(Cl)ccc32)cc1 (centres unmarked) [Example 55, 5-Chloro-1-(4-methoxybenzenesulfonyl)-3-{2-[4-(1-methylpiperidin-4-yl)piperazin-1-yl]-2-oxo-1-phenylethyl}-1,3-dihydrobenzimidazol-2-one] | 100 to 500
19 | COc1ccc(S(=O)(=O)n2c(=O)n(C(C(=O)N3CCN(c4ccncc4)CC3)c3ccccc3)c3cc(Cl)ccc32)c(OC)c1 (centres unmarked) [Example 56, 5-Chloro-1-(2,4-dimethoxybenzenesulfonyl)-3-[2-oxo-1-phenyl-2-(4-pyridin-4-ylpiperazin-1-yl)-ethyl]-1,3-dihydrobenzimidazol-2-one] | 100 to 500
20 | N#Cc1ccc(S(=O)(=O)n2c(=O)n(C(C(=O)N3CCN(c4ccncc4)CC3)c3ccccc3)c3cc(Cl)ccc32)cc1 (centres unmarked) [Example 57, 4-{5-Chloro-2-oxo-3-[2-oxo-1-phenyl-2-(4-pyridin-4-ylpiperazin-1-yl)-ethyl]-2,3-dihydrobenzimidazole-1-sulfonyl}-benzonitrile] | < 100
21 | COc1ccc(S(=O)(=O)n2c(=O)n(C(C(=O)N3CCN(c4ccncc4)CC3)c3ccccc3)c3cc(Cl)ccc32)cc1 (centres unmarked) [Example 58, 5-Chloro-1-(4-methoxybenzenesulfonyl)-3-[2-oxo-1-phenyl-2-(4-pyridin-4-ylpiperazin-1-yl)ethyl]-1,3-dihydrobenzimidazol-2-one] | < 100
22 | COc1ccc(S(=O)(=O)n2c(=O)n(C(C(=O)N3CCN(c4ccncc4)CC3)c3ccccc3)c3cc(Cl)c(Cl)cc32)c(OC)c1 (centres unmarked) [Example 59, 5,6-Dichloro-1-(2,4-dimethoxybenzenesulfonyl)-3-[2-oxo-1-phenyl-2-(4-pyridin-4-ylpiperazin-1-yl)ethyl]-1,3-dihydrobenzoimidaz] | 500 to 10000
23 | COc1ccc(S(=O)(=O)n2c(=O)n(C(C(=O)N3CCN(C4CCN(C)CC4)CC3)c3ccccc3)c3ccccc32)cc1 (centres unmarked) [Example 60, 1-(4-Methoxybenzenesulfonyl)-3-{2-[4-(1-methylpiperidin-4-yl)piperazin-1-yl]-2-oxo-1-phenyl-ethyl}-1,3-dihydrobenzimidazol-2-one] | 500 to 10000
